According to US20220016241A1, “COMPOSITIONS AND METHODS FOR REDUCING ANTIGEN-SPECIFIC IMMUNOGENICITY” (The Research Foundation for The State University of New York, priority 2013, published 2022):

Experiments:
OVA = target: T1, OVA (Gallus gallus, UniProt P01012); test: Binding of OPLS to OVA by fluorescence spectroscopy
T1 construct: purchased Sigma (St. Louis, Mo.)
Protocol: (§1) The binding of OPLS to several therapeutic proteins was evaluated using fluorescence spectroscopy (FIG. 2).

GAA = target: T2, GAA (Homo sapiens, UniProt P10253); test: Binding of OPLS to GAA by fluorescence spectroscopy; conditions: spectroscopic titration
T2 construct: Full length recombinant rhGAA was produced in Human Kidney Embryo Cells for our use by Creative Biomart; purchased Creative Biomart (Shirley, N.Y.); host or cells: Human Kidney Embryo Cells
Protocol: as §1

Humira = test: Binding of OPLS to Humira
Protocol: The binding of OPLS to several therapeutic proteins was evaluated using fluorescence spectroscopy (FIG. 2). The fluorescence emission reduced as the concentration of OPLS was increased. The fluorescence intensity changes were highest for FVIII compared to GAA and OVA. […] The high affinity binding for FVIII is consistent with the existence of a putative lipid binding domain.
As shown in FIG. 6(d), anti-Humira antibody titers were lower in mice that were co-administered OPLS (5 mg dose) and Humira® ([…]) via the s.c. route than in those administered Humira® alone ([…]) (also via the s.c. route) after 4 weekly injection followed by a 2 weeks washout period. Titer values were obtained by classical sandwitch ELISA were the plates was coated with Humira before incubation with dilutions with plasma samples, anti-Humira antibodies were detected with a rat anti-mouse-HRP conjugated antibodies. […] It is highly doubtful that the weak binding seen here is “shielding” an immunologic epitope.

anti-Ova antibody titers = test: Effect of OPLS on immunogenicity of ovalbumin after SC administration; assay type: in vivo, SW mice; conditions: 5 mg OPLS with 1 μg Ova s.c.
Protocol: Methods: 14 SW mice between 6 and 8 weeks of age were divided into 2 groups: group one received 1 μg OVA SC in the abdominal region. Group two received 1 μg OVA/5 mg OPLS SC in the abdominal region. This treatment was given one day 1, 8, 10 and 12. Three days after the last injection the animals were sacrificed. Blood was centrifuged at 7500 rpm for 5 min at 4° C. Plasma was then removed and stored at -80° C. until analysis Titers values were obtained using an anti-Ova IgG […] analysis kit as per the manufacturers instruction (alphadiagnostic international). Statistics was done on the arithmetic mean of the log transformed data, graphs are reported as geometric means. Non-responders were given the value of the plate specific factor for uniformity.

anti-RXT antibody titers = test: Effect of OPLS on rituximab immunogenicity; assay type: in vivo, SW mice; conditions: OPLS 5 mg vs 0.4 mg with 1 μg RXT s.c., dose dependent
Protocol: Materials and Methods: 30 SW mice between 6 and 8 weeks of age were divided into 3 groups: group one received 1 ug RXT SC in the abdominal region. Group two received 1 ug RXT/0.4 mg OPLS SC in the abdominal region and group 3 received 1 μg RXT/5 mg OPLS sc in the abdominal region. This treatment was given one day 1, 8, 10 and 12. Three days after the last injection the animals were sacrificed. Blood was centrifuged at 7500 rpm for 5 min at 4 degrees Celsius. Plasma was then removed and stored at −80 degrees Celsius until analysis Total titers were determined by classical standard ELISA. Briefly, Nunc-Maxisorb 96-well plates were coated overnight at 4° C. with 50 μl/well of 2.5 μg/ml RXT. Plates were then washed and blocked with 1% bovine serum albumin (blocking buffer). 50 μl/well of various dilutions of the sample were added to the plate and incubated at room temperature for 2 h. Plasma samples from animals exposes to a sham treatment (buffer only) served as controls. The plates were then washed and incubated with 50 μl of goat anti-mouse FC-specific anti-body-HRP conjugate at a 1:50000 dilution in blocking buffer at room temperature for 1 h. Color was developed for 20 min with 100 μl of TMB solution. 100 μl of 2 N H2SO4 was used to stop the reaction. Optical density at […] was measured using a plate reader. Non-responders were given the value of the plate specific factor for uniformity. […]

[1] = test system: anti-GAA peptide antibody titers; test: Effect of OPLS and PS-liposomes on GAA peptide immunogenicity; assay type: in vivo, mouse; conditions: 10 μg peptide, 4 weekly s.c.; OPLS 5 mg or PS/PC 1:10,000 protein:lipid
Protocol: Materials and Methods. GAA peptide Source: This GAA peptide was produced by American Peptide Company (Sunnyvale, Calif.). They produced for us a peptide […] containing amino acids 339-352 of the full length GAA sequence, YIFLGPEPKSVVQ (SEQ ID NO:1). OPLS Source: Sigma-Aldrich (St. Louis, Mo.) Peptide concentration dose: 10 μg/injection. Free GAA peptide (n=4), PS-GAA peptide (n=4), and OPLS-GAA peptide (n=5). Each mouse received 4 weekly subcutaneous (s.c.) injections near the base of the tail of 100 μl/injection of their treatment. Two weeks after the last injection, a retro-orbital blood sample was taken from each mouse. Samples were stored at −80° C. until analysis. These samples were then analyzed for anti-GAA peptide Ab titers. Anti-GAA antibody titers were measured as follows: ELISA plate (maxisorp, NUNC) was coated with 100 μl of 10 μg/ml of sterile rhGAA in sodium carbonate-bicarbonate buffer pH=9.6. The plate was incubated overnight at 4° C. The plate was washed six times with PBS containing 0.05% Tween 20 (PBS-T, 250 μl/well) using an automated plate washer. […] The reaction was stopped with 2 N sulfuric acid and read immediately at 450 nm using a micro-plate reader. The titer values are quantitated using a statistical endpoint method as described by Frey et al. Control plasma samples were run on each plate. […]

[2] = Safety of repeated high doses of OPLS; assay type: in vivo, rodent and primate models; conditions: up to 950 mg
Protocol: Given that the methods disclosed herein appear to work best with doses of OPLS that equal or exceed 5 mg, it is important to understand the safety and toxicity of high doses of OPLS.

T1 sequence (P01012 whole entry): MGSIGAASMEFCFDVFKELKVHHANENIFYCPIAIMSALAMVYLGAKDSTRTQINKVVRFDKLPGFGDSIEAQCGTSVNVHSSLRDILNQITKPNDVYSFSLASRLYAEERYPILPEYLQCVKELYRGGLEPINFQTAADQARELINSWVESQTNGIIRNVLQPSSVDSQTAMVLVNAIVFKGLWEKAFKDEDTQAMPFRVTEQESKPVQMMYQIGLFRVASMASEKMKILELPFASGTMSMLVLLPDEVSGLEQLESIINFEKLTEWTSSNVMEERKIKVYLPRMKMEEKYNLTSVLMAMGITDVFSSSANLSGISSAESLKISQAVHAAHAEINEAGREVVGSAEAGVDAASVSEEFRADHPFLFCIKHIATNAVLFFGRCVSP

## N[C@@H](COP(=O)(O)O)C(=O)O [OPLS, O-Phospho-L-Serine]
OVA; fluorescence titration, FIG. 2, read-out: Dissociation constant (Kd) of OPLS binding to OVA
  Kd: 2.57 mM
OVA; spectroscopic titration
  Binding affinity of OVA for OPLS: lowest affinity
GAA
  Binding affinity of GAA for OPLS: lowest affinity
Humira
  Binding between OPLS and Humira: weak binding
anti-Ova antibody titers
  Anti-Ova antibody titers vs Ova alone: lower
anti-RXT antibody titers
  Anti-RXT antibody titers vs RXT alone: lower
[1]
  Anti-GAA peptide antibody titers vs GAA peptide alone: lower
[2]
  Tolerability of repeated, high doses: well tolerated
